What was measured:
[1] = target: T1, ATX activity in plasma (Rattus norvegicus, UniProt Q64610); experiment: Measurement of ATX activity in plasma (ex vivo), rat single administration test; parameters: species or system male Wistar rat
T1 construct: from tissue; host or cells: plasma of male Wistar rats after oral dosing
Experimental: [Measurement of ATX Activity in Plasma (Ex Vivo)]
A compound administration solution prepared by wet pulverization in a mixer mill (type: MM400) for 10 min and adjusting to a given concentration with 0.5% aqueous carboxymethylcellulose solution was orally administered to male Wistar rat (5-week-old when used) at 5 mL/kg. Blood samples were collected from the cervical vein over time at 8 to 24 hr after administration. The blood was heparin-treated using a micro blood collection tube Capiject (CJ-AL, TERUMO CORPORATION), and the plasma was separated by centrifugation (4° C., 12,000 rpm, for 2 min), and preserved at −80° C. The rats after blood sampling were euthanized by exsanguination from the caudal vena cava under isoflurane inhalation anesthesia. The measurement of ATX activity in plasma was evaluated using the concentration of choline in the plasma, which was liberated from lysophosphatidylcholine (substrate of ATX) by the lysophospholipase D activity of ATX, as an index. An equal amount of 2× assay buffer (200 mM Tris-HCl pH9.0, 10 mM MgCl2, 1 M NaCl, 0.1% Triton X-100) is added to plasma (12 μL) and reacted at 37° C. for 6 hr. The reaction mixture (10 μL) after reaction for 6 hr and 45 μL of reagent R^1 solution (100 mM Tris-HCl pH 8.0, 0.5 mM TOOS, 10 U/mL peroxidase, 0.01% Triton X-100) were added and blended and absorbance at 550-700 nm was measured and used as a prevalue. As the standard, choline chloride was used. 1 mM choline chloride was diluted with 2× assay buffer up to 7 steps in 2-fold serial dilution, R^1 solution was treated similarly and the absorbance was measured. Furthermore, 15 μL of reagent R^2 solution (100 mM Tris-HCl pH 8.0, 1 mM 4-aminoantipyrine, 10 U/mL choline oxidase, 0.01% Triton X-100) was added, and the mixture was reacted at room temperature for 10 min, and absorbance at 550-700 nm was measured. The choline concentration per reaction time was calculated from the difference between the absorbance after R^2 solution addition and prevalue measured before R^2 addition and used as ATX activity value. inhibitory activity (%)=100×{1−[choline concentration (μM) of test substance administration group/choline concentration (μM) of solvent control group]} <calculating formula>

[2] = target: T2, ATX activity in plasma (Mus musculus, UniProt Q9R1E6); experiment: ATX activity in plasma in the mouse bleomycin-induced lung fibrosis model; assay type: in vivo, female C57BL/6J mouse; settings: 30 mg/kg, bid, oral, 14 days; FIG. 5
T2 construct: from tissue; host or cells: plasma of female C57BL/6J mice (bleomycin-induced lung fibrosis model)
Experimental: A compound administration solution prepared by wet pulverization in a mixer mill (type: MM400) for 10 min and adjusting to a given concentration with 0.5% aqueous carboxymethylcellulose solution was orally administered to male Wistar rat (5-week-old when used) at 5 mL/kg. Blood samples were collected from the cervical vein over time at 8 to 24 hr after administration. The blood was heparin-treated using a micro blood collection tube Capiject (CJ-AL, TERUMO CORPORATION), and the plasma was separated by centrifugation (4° C., 12,000 rpm, for 2 min), and preserved at −80° C. […] The measurement of ATX activity in plasma was evaluated using the concentration of choline in the plasma, which was liberated from lysophosphatidylcholine (substrate of ATX) by the lysophospholipase D activity of ATX, as an index. […] The reaction mixture (10 μL) after reaction for 6 hr and 45 μL of reagent R^1 solution (100 mM Tris-HCl pH 8.0, 0.5 mM TOOS, 10 U/mL peroxidase, 0.01% Triton X-100) were added and blended and absorbance at 550-700 nm was measured and used as a prevalue. […] 1 mM choline chloride was diluted with 2× assay buffer up to 7 steps in 2-fold serial dilution, R^1 solution was treated similarly and the absorbance was measured. […]
At 14 days from the bleomycin administration, plasma, BALF and lung tissue were collected. BALF was recovered and the concentration of LPA (18:2) in BALF (FIG. 6) was measured. […]

[3] = system: bleomycin (BLM)-induced lung fibrosis model; experiment: Mouse bleomycin-induced lung fibrosis model: fibrosis markers in plasma, BALF and lung; assay type: in vivo, female C57BL/6J mouse; settings: 30 mg/kg, bid, oral, 14 days
Experimental: [Consideration of Action of ATX Inhibitor on Mouse Bleomycin-Induced Lung Fibrosis Model]
The effectiveness of an ATX inhibitor (Example 5, hereinafter to be referred to as example 5 in the Figures) on bleomycin (BLM)-induced lung fibrosis model was evaluated using, as an index, variation of each fibrosis index marker in the plasma or BALF, or fibrosis related genes in the lung.
8-Week-old mice were grouped in the group constitution shown in Table 24 using a simulation method such that the body weight would become uniform before the previous day of bleomycin administration (SOP/STA/RA-0003). The mice were anesthetized with isoflurane, 0.5 mg/mL of bleomycin solution was intratracheally administered at 50 μL/head to produce a bleomycin-induced lung fibrosis model (1.25 U/kg). In the saline group, physiological saline was administered instead of bleomycin. The ATX inhibitor (Example 5) was orally administered two times per day from the day of bleomycin administration. In addition, the body weight was measured once per day from the day of grouping.
One equivalent of a mixture of 1N NaOH and 0.5% CMC solution (100 μL in total) relative to the ATX inhibitor (Example 5) was added, 10 zirconia beads (φ3 mm) were added, and they were pulverized using a mixer mill MM400 (frequency 28.01/min, pulverization time 10 min). 0.5% CMC was added to […] to give a suspension and the suspension was sonicated for 10 min. The administration dose volume was 10 mL/Kg and the administration dose amount was 30 mg/kg. Administration was performed twice per day and the initial administration was performed 30 min before BLM administration.
animal species: female C57BL/6J mouse, supply company: CHARLES RIVER LABORATORIES JAPAN, INC., number of animals used: 10 per group (age at arrival: 7 weeks old).
At 14 days from the bleomycin administration, plasma, BALF and lung tissue were collected. BALF was recovered and the concentration of LPA (18:2) in BALF (FIG. 6) was measured. After blood was collected from the abdominal vena cava, whole blood was anticoagulated using heparin and centrifuged to collect plasma. Then, the ATX activity (FIG. 5) and SP-D (FIG. 1) in the plasma were measured. Furthermore, the chest was opened and whole lung tissue was collected, and gene expression of each of Col1a1 (FIG. 2), CTGF (FIG. 3) and IL-6 (FIG. 4) in the lung was analyzed. For the gene expression analysis, mRNA was extracted from the lung tissue using TRIzol, reverse transcription was performed using a kit of Life technologies, and qPCR was performed using Tagman probe.
An organic solvent and LPA (17:0) solution as an internal standard substance were added to the collected BALF (200 μL), and the mixture was dried to solidness under reduced pressure at 35° C. […] The analysis sample was separated by reversed-phase column and LPA (18:2) was detected by the QTRAP6500 system (ABSciex). In addition, LPA (18:2) synthesis reference standard was added to PBS buffer used for recovery of BALF and compared with the analytical curve sample that underwent a similar pre-treatment, whereby the concentration of LPA (18:2) contained in BALF was calculated (FIG. 6).
The difference between the saline group and the BLM administration group and the difference between the BLM administration group and the compound administration group were analyzed by the Student's t-test wherein the significance level was 5% on both sides. […]

`COc1ccc(-c2cnnc(OC[C@H]3CC[C@H](C(F)(F)F)CC3)c2)nc1[C@H]1C[C@@H]1C(=O)O` [Example 5, (1S,2S)-2-[3-methoxy-6-(6-{[trans-4-(trifluoromethyl)cyclohexyl]methoxy}pyridazin-4-yl)pyridin-2-yl]cyclopropanecarboxylic Acid] was tested, and the “Experimental Example 2 Rat single administration test (inhibitory activity (%) 8 hr after 1 mg/kg oral administration)” value [1] was 92%, the “ATX activity in the plasma” value [2] was “suppressed ATX activity in the plasma completely” and the “SP-D in the plasma” value ([3]; FIG. 1) was “suppressed”. The “production of LPA (C18:2) in BALF” value ([3]; FIG. 6) was “suppressive action”, the “Col1a1 gene expression in the lung” value ([3]; mRNA in lung tissue, FIG. 2) was “expression suppressive action” and the “CTGF gene expression in the lung” value ([3]; mRNA in lung tissue, FIG. 3) was “expression suppressive action”. For the same compound, the “IL-6 gene expression in the lung” value ([3]; mRNA in lung tissue, FIG. 4) was “expression suppressive action”.

— patent US11958812B2, “3, 5-disubstituted pyridine and 3, 5-disubstituted pyridazine derivatives and pharmaceutical use of same” (MITSUBISHI TANABE PHARMA CORPORATION, priority 2018, dated 2024)
